Where a name gives a salt, the structure may show the parent alone.

The target of experiment [1] is MCL-1 (Homo sapiens (Human), UniProt Q07820, K194A/K197A/R201A). Put plainly: Protein-protein interaction assay MCL-1/Noxa BH3 peptide (MCL-1 assay), TR-FRET. The class given is binding. The note with it: MCL-1/Noxa BH3 peptide TR-FRET; median. In outline:
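TR-FRET competition between MBP-MCL-1 (173-321, 1 nM) and biotin-Noxa BH3 peptide (1 nM) with anti-MBP-Eu/streptavidin-XL665; 11 compound levels 0.1 nM–20 μM, 10 min preincubation. Incubated 1 h at 22 °C then overnight at 4 °C, pH 7 Tris buffer. 665/620 ratio normalized to DMSO and no-MCL-1; 4-parameter IC50.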

Experiment [2] has as its system SUDHL5. Description: Antiproliferation assay SUDHL5 (Assay 7). The class given is cell-based. The note with it: SUDHL5 cells, 72 h, CellTiter-Glo; median; read-out: IC50 Antiproli SUDHL5 [M] (median). Put shortly: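 CellTiter-Glo luminescence readout; 72 h compound exposure, 37 °C, humidified; rim wells excluded; time-zero reference plate plated in parallel and read identically.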

The subject of experiment [3] is SUDHL10. Put plainly: Induction of caspase-3/7 activity, SUDHL10 (Assay 4). In kind it is cell-based. To be noted: SUDHL10 cells. In outline: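 DLBCL lines treated with compounds for 3 h at 37° C.; caspase-3/7 activity read by Caspase-Glo 3/7 luminescence. Medium-only background subtracted; EC50 fitted with bottom fixed at 1 and top set to reference compound's maximal induction.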

MCL-1, sequence (Q07820 whole entry K194A/K197A/R201A, looked up): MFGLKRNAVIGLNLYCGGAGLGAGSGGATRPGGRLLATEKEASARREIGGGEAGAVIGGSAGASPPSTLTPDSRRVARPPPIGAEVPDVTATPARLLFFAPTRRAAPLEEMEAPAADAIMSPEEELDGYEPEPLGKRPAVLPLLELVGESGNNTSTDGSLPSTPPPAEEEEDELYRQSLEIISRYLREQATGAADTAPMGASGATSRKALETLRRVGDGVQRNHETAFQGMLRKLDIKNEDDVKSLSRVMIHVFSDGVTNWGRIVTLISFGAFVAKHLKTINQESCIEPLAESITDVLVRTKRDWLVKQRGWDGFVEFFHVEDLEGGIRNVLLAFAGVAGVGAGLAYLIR

Take `Cc1c2c(nn1C)COCCCCn1c(C(=O)O)c(CCCOc3cccc4ccccc34)c3ccc(F)c-2c31` (single isomer, unassigned; enantiomer 1) [Example 3, 4-fluoro-2,3-dimethyl-7-[3-(naphthalen-1-yloxy)propyl]-2,10,11,12,13,15-hexahydropyrazolo-[4′,3′:9,10][1,6]oxazacycloundecino[8,7,6-hi]indole-8-carboxylic acid-N-ethylethanamine salt (enantiomer 1)]: the IC50 turned out to be 0.0013 µM in experiment [1] and 6.4e-07 M in experiment [2]. This compound had a concentration for a half-maximal effect (EC50) in experiment [3] (Homo sapiens, SU-DHL10, 3 h, Caspase-Glo 3/7, median) of 1.3 µM.

With `CCc1c2c(nn1C)COCCCCn1c(C(=O)O)c(CCCOc3cccc4ccccc34)c3ccc(F)c-2c31` (single isomer, unassigned; enantiomer 1) [Example 7, 3-ethyl-4-fluoro-2-methyl-7-{3-[(naphthalen-1-yl)oxy]propyl}-2,10,11,12,13,15-hexahydro-pyrazolo[4′,3′:9,10][1,6]oxazacycloundecino[8,7,6-hi]indole-8-carboxylic acid-N-ethylethanamine salt (enantiomer 1)], the results for the concentration for half-maximal inhibition (IC50) in experiment [1] and in experiment [2] were 0.00097 µM and 7.5e-07 M, respectively. A half-maximal effect in experiment [3] (3 h, Caspase-Glo 3/7, median) (EC50) was put at 1 µM.

Take `Cc1c2c(nn1C)COCCCCn1c(C(=O)O)c(CCCOc3cccc4cc(F)ccc34)c3ccc(F)c-2c31` (single isomer, unassigned; enantiomer 1) [Example 13, 4-fluoro-7-{3-[(6-fluoronaphthalen-1-yl)oxy]propyl}-2,3-dimethyl-2,10,11,12,13,15-hexahydro-pyrazolo[4′,3′:9,10][1,6]oxazacycloundecino[8,7,6-hi]indole-8-carboxylic acid-N-ethylethanamine salt (enantiomer 1)]: the IC50 is 0.00098 µM in experiment [1] and 2.9e-07 M in experiment [2]. In experiment [3] (3 h, Caspase-Glo 3/7, median), this compound displayed an EC50 of 0.68 µM.

Turning to `Cc1c2c(nn1C)COCCCCn1c(C(=O)O)c(CCCOc3ccc(F)c4ccccc34)c3ccc(F)c-2c31` (single isomer, unassigned; enantiomer 1) [Example 16, 4-fluoro-7-{3-[(4-fluoronaphthalen-1-yl)oxy]propyl}-2,3-dimethyl-2,10,11,12,13,15-hexahydro-pyrazolo[4′,3′:9,10][1,6]oxazacycloundecino[8,7,6-hi]indole-8-carboxylic acid (enantiomer 1)], the IC50 in experiment [1] was determined as 0.0019 µM; in experiment [2], 9.3e-07 M. The compound also had an EC50 in experiment [3] (3 h, Caspase-Glo 3/7, median) of 4.1 µM.

Take `CCc1c2c(nn1C)COCCCCn1c(C(=O)O)c(CCCOc3cccc4cc(F)ccc34)c3ccc(F)c-2c31` (single isomer, unassigned; enantiomer 1) [Example 22, 3-ethyl-4-fluoro-7-{3-[(6-fluoronaphthalen-1-yl)oxy]propyl}-2-methyl-2,10,11,12,13,15-hexahydropyrazolo[4′,3′:9,10][1,6]oxazacycloundecino[8,7,6-hi]indole-8-carboxylic acid-N-ethylethanamine salt (enantiomer 1)]: the concentration for half-maximal inhibition (IC50) is 0.00045 µM in experiment [1] and 2.7e-07 M in experiment [2]. In experiment [3] (3 h, Caspase-Glo 3/7, median), a half-maximal effect (EC50) was put at 0.38 µM.

On to `CCc1c2c(nn1C)COCCCCn1c(C(=O)O)c(CCCOc3cccc4cc(F)ccc34)c3ccc(F)c-2c31` (single isomer, unassigned; enantiomer 1) [Example 24, 3-ethyl-4-fluoro-7-{3-[(6-fluoronaphthalen-1-yl)oxy]propyl}-2-methyl-2,10,11,12,13,15-hexahydropyrazolo[4′,3′:9,10][1,6]oxazacycloundecino[8,7,6-hi]indole-8-carboxylic acid (enantiomer 1)], for which the half-inhibitory concentration (IC50) is 0.00058 µM in experiment [1] and 3.2e-07 M in experiment [2]. This compound registered a 50% effective concentration (EC50) in experiment [3] (3 h, Caspase-Glo 3/7, median) of 0.54 µM.
